# Data taken from patent US10358434B2, “2-(3-pyridinyl)-1H-benzimidazole derivative compound and medicament containing same” (NIHON MEDI-PHYSICS CO., LTD., priority 2014, dated 2019).
# Assays:
# [1] = system: human adrenal gland section expressing aldosterone-producing adenoma; assay: In vitro autoradiography using human adrenal adenoma; format: binding
# Excerpt: From adrenal gland excised from a human patient for treatment of primary aldosteronism, a portion containing aldosterone-producing adenoma was removed and was then frozen. The frozen adrenal gland was embedded in an embedding agent for production of a frozen tissue section (Tissue-Tek O.C.T. Compound, Sakura Finetek Japan). Using a freezing microtome (CM3050S, Leica Microsystems), a 7-μm thin slice section, which is schematically shown in FIGS. 17(a) and 17(b), was produced, and was preserved at −20° C. before use. In FIGS. 17, 71a and 71b indicate aldosterone-producing adenomas, 72a and 72b indicate normal adrenal cortexes, and 73a and 73b indicate normal adrenal medullas. A 5-33 kBq/mL solution was prepared by adding a suitable amount of each of Compounds [^18F] 100, [^18F] 200, [^123I] 400, [^18F] 500, and [^123I] 601 to [^123I] 610, which were obtained by the methods described in Examples 2, 4, 7, 9, 11, 13, 15, 17, 19, 21, 23, 25, 27, and 29, or [^123I] IMTO to a phosphate-buffered physiological saline containing 1 w/v % bovine serum albumin (not containing fatty acid). The radioactivity concentration was measured using an autowell gamma system (ARC-7001, manufactured by Hitachi Aloka Medical, Ltd.). The section was immersed in the obtained sample solution for 10 minutes. For Compounds [^18F] 100, [^18F] 200, [^123I] 400, [^18F] 500, [^123I] 601 and [^123I] 602, the section shown in FIG. 17(a) was used, and for Compounds […] [^123I] IMTO, both sections shown in FIGS. 17(a) and (b) were used. Each sample solution was washed off, and the section was then exposed to an imaging plate (BAS-SR2040, manufactured by FUJIFILM Holdings Corporation) (IP) for 16-20 hours, and thereafter, an autoradiogram was obtained using a fluoro-image analyzer (FLA-7000, manufactured by FUJIFILM Holdings Corporation).
# In order to quantitatively compare differences between images caused by ^123I and ^18F nuclides, a correction was made by calculating accumulation of radioactivity within the range of a region of interest (ROI) by means of integral calculation based on half-life, added radioactivity and IP contact time.
# 610. FIG. 18(b), FIG. 19(b), FIG. 20(b), FIG. 21(b), FIG. 22(a), FIG. 23(a), FIG. 24(a), FIG. 25(a), FIG. 26(a), FIG. 27(a), FIG. 28(a), FIG. 29(a), FIG. 30(a), and FIG. 31(a) each show an autoradiogram of [^123I] IMTO. […] 100, [^18F] 200, [^123I] 400, [^18F] 500, and [^123I] 601 to [^123I] […] The ROI having the same area as each other was established in a normal site and in a site in which aldosterone-producing adenoma had developed. Then, the PSL value (B1) indicating accumulation of radioactivity in the sites of normal adrenal cortexes 72a and 72b was compared with the PSL value (B2) indicating accumulation of radioactivity in the sites of aldosterone-producing adenomas 71a and 71b. In Table 7, the B1, B2 and B2/B1 values of [^18F] 100 indicate the mean values for the number of tests (n), respectively.
# [2] = In vivo kinetics experiment (radioactivity distribution); parameters: species or system Wistar male rat; details: rat i.v., mean ± SD
# Description: Each of Compounds [^18F] 100, [^18F] 200, [^123I] 400, [^18F] 500, and [^123I] 601 to 610 obtained by the methods described in Examples 2, 4, 7, 9, 11, 13, 15, 17, 19, 21, 23, 25, 27, and 29, or [^123I] IMTO, was diluted with a physiological saline containing 1 w/v % ascorbic acid to prepare a solution to be administered. The above described compound (approximately 1 to 3.7 MBq) was injected into the caudal vein of a Wistar male rat (9 weeks old) under anesthesia with a mixed gas of isoflurane/air, and ten minutes after the injection, the rat was sacrificed by exsanguination. From the thus sacrificed rat, blood and organs (heart, lung, stomach, liver, spleen, small intestine, large intestine, kidney, bladder (including urine), muscle (lower limbs), brain, adrenal gland, testis, fat, femur, or thyroid gland) were excised, and the weights thereof were then measured. Thereafter, radioactivity was measured in the blood, the individual excised organs, and the remaining whole body. Further, 30 and 60 minutes after the administration, the same operations as those described above were carried out. […] The symbol “n” in Tables 9 to 23 indicates the number of rats used. In addition, Tables 9 to 23 also show the ratio of radioactivity accumulation in adrenal grand (% ID/g) to radioactivity accumulation in each of blood, liver, kidney, small intestine, muscle and fat (% ID/g).
structure (smiles),measurement,setting,value
"COC(=O)c1cncn1[C@H](C)c1ccc(I)cc1 [[^123I] IMTO, (R)-[^123I]iodometomidate, reference compound]",accumulation of radioactivity in adrenal gland section (autoradiogram),[1]; FIGS. 18 to 31,accumulation of radioactivity was observed in the entire adrenal gland section
same,B2/B1 accumulation ratio,[1]; section of FIG. 17(a),0.84
same,"B2 (PSL value, aldosterone-producing adenoma)","[1]; section of FIG. 17(a), site 71a",7863
same,"B1 (PSL value, normal adrenal cortex)","[1]; section of FIG. 17(a), site 72a",9415
same,B2/B1 accumulation ratio,[1]; section of FIG. 17(b),0.79
same,"B2 (PSL value, aldosterone-producing adenoma)","[1]; section of FIG. 17(b), site 71b",6649
same,"B1 (PSL value, normal adrenal cortex)","[1]; section of FIG. 17(b), site 72b",8453
same,Adrenal gland/blood ratio of radioactivity accumulation,[2]; 10 min after administration,15.93 ± 4.94
same,Adrenal gland/kidney ratio of radioactivity accumulation,[2]; 10 min after administration,31.76 ± 10.16
same,Adrenal gland/liver ratio of radioactivity accumulation,[2]; 10 min after administration,6.72 ± 2.00
same,Adrenal gland/muscle ratio of radioactivity accumulation,[2]; 10 min after administration,126.18 ± 54.27
same,Adrenal gland/small intestine ratio of radioactivity accumulation,[2]; 10 min after administration,35.65 ± 9.43
same,Radioactivity distribution Adrenal gland,[2]; 10 min after administration,22.14 ± 6.98 % ID/g
same,Radioactivity distribution Bladder (including urine),[2]; 10 min after administration,0.25 ± 0.27 % ID/g
same,Radioactivity distribution Blood,[2]; 10 min after administration,1.40 ± 0.13 % ID/g
same,Radioactivity distribution Heart,[2]; 10 min after administration,0.48 ± 0.07 % ID/g
same,Radioactivity distribution Kidney,[2]; 10 min after administration,0.70 ± 0.01 % ID/g
same,Radioactivity distribution Large intestine,[2]; 10 min after administration,0.10 ± 0.02 % ID/g
same,Radioactivity distribution Liver,[2]; 10 min after administration,3.29 ± 0.08 % ID/g
same,Radioactivity distribution Lung,[2]; 10 min after administration,0.72 ± 0.05 % ID/g
same,Radioactivity distribution Muscle (lower limbs),[2]; 10 min after administration,0.18 ± 0.05 % ID/g
same,Radioactivity distribution Remaining whole body,[2]; 10 min after administration,0.29 ± 0.00 % ID/g
same,Radioactivity distribution Small intestine,[2]; 10 min after administration,0.62 ± 0.03 % ID/g
same,Radioactivity distribution Spleen,[2]; 10 min after administration,0.30 ± 0.02 % ID/g
same,Radioactivity distribution Stomach,[2]; 10 min after administration,0.52 ± 0.18 % ID/g
same,Radioactivity distribution Testis,[2]; 10 min after administration,0.52 ± 0.08 % ID/g
same,Radioactivity distribution Thyroid gland,[2]; 10 min after administration,1.30 ± 1.05 % ID/g
same,Radioactivity distribution Whole brain,[2]; 10 min after administration,0.30 ± 0.02 % ID/g
same,Adrenal gland/blood ratio of radioactivity accumulation,[2]; 30 min after administration,6.84 ± 2.49
same,Adrenal gland/kidney ratio of radioactivity accumulation,[2]; 30 min after administration,16.66 ± 8.95
same,Adrenal gland/liver ratio of radioactivity accumulation,[2]; 30 min after administration,9.74 ± 4.16
same,Adrenal gland/muscle ratio of radioactivity accumulation,[2]; 30 min after administration,97.10 ± 32.37
same,Adrenal gland/small intestine ratio of radioactivity accumulation,[2]; 30 min after administration,25.49 ± 8.31
same,Radioactivity distribution Adrenal gland,[2]; 30 min after administration,17.66 ± 7.43 % ID/g
same,Radioactivity distribution Bladder (including urine),[2]; 30 min after administration,0.39 ± 0.08 % ID/g
same,Radioactivity distribution Blood,[2]; 30 min after administration,2.55 ± 0.16 % ID/g
same,Radioactivity distribution Heart,[2]; 30 min after administration,0.74 ± 0.03 % ID/g
same,Radioactivity distribution Kidney,[2]; 30 min after administration,1.10 ± 0.12 % ID/g
same,Radioactivity distribution Large intestine,[2]; 30 min after administration,0.12 ± 0.01 % ID/g
same,Radioactivity distribution Liver,[2]; 30 min after administration,1.82 ± 0.04 % ID/g
same,Radioactivity distribution Lung,[2]; 30 min after administration,0.90 ± 0.09 % ID/g
same,Radioactivity distribution Muscle (lower limbs),[2]; 30 min after administration,0.18 ± 0.02 % ID/g
same,Radioactivity distribution Remaining whole body,[2]; 30 min after administration,0.31 ± 0.03 % ID/g
same,Radioactivity distribution Small intestine,[2]; 30 min after administration,0.68 ± 0.06 % ID/g
same,Radioactivity distribution Spleen,[2]; 30 min after administration,0.43 ± 0.04 % ID/g
same,Radioactivity distribution Stomach,[2]; 30 min after administration,0.46 ± 0.11 % ID/g
same,Radioactivity distribution Testis,[2]; 30 min after administration,0.32 ± 0.04 % ID/g
same,Radioactivity distribution Thyroid gland,[2]; 30 min after administration,0.81 ± 0.16 % ID/g
same,Radioactivity distribution Whole brain,[2]; 30 min after administration,0.18 ± 0.02 % ID/g
same,Adrenal gland/blood ratio of radioactivity accumulation,[2]; 60 min after administration,6.73 ± 2.57
same,Adrenal gland/kidney ratio of radioactivity accumulation,[2]; 60 min after administration,18.20 ± 8.58
same,Adrenal gland/liver ratio of radioactivity accumulation,[2]; 60 min after administration,14.20 ± 5.28
same,Adrenal gland/muscle ratio of radioactivity accumulation,[2]; 60 min after administration,120.14 ± 30.92
same,Adrenal gland/small intestine ratio of radioactivity accumulation,[2]; 60 min after administration,24.59 ± 8.26
same,Radioactivity distribution Adrenal gland,[2]; 60 min after administration,19.70 ± 8.14 % ID/g
same,Radioactivity distribution Bladder (including urine),[2]; 60 min after administration,0.68 ± 0.30 % ID/g
same,Radioactivity distribution Blood,[2]; 60 min after administration,2.91 ± 0.09 % ID/g
same,Radioactivity distribution Heart,[2]; 60 min after administration,0.77 ± 0.03 % ID/g
same,Radioactivity distribution Kidney,[2]; 60 min after administration,1.10 ± 0.10 % ID/g
same,Radioactivity distribution Large intestine,[2]; 60 min after administration,0.14 ± 0.02 % ID/g
same,Radioactivity distribution Liver,[2]; 60 min after administration,1.37 ± 0.06 % ID/g
same,Radioactivity distribution Lung,[2]; 60 min after administration,1.01 ± 0.03 % ID/g
same,Radioactivity distribution Muscle (lower limbs),[2]; 60 min after administration,0.16 ± 0.02 % ID/g
same,Radioactivity distribution Remaining whole body,[2]; 60 min after administration,0.34 ± 0.01 % ID/g
same,Radioactivity distribution Small intestine,[2]; 60 min after administration,0.79 ± 0.11 % ID/g
same,Radioactivity distribution Spleen,[2]; 60 min after administration,0.39 ± 0.03 % ID/g
same,Radioactivity distribution Stomach,[2]; 60 min after administration,0.41 ± 0.05 % ID/g
same,Radioactivity distribution Testis,[2]; 60 min after administration,0.33 ± 0.02 % ID/g
same,Radioactivity distribution Thyroid gland,[2]; 60 min after administration,1.29 ± 0.25 % ID/g
same,Radioactivity distribution Whole brain,[2]; 60 min after administration,0.11 ± 0.00 % ID/g
